Our source for the MIC and LD50 values is patent publication US4293695A, “Furonaphthyridine compounds” (Daiichi Seiyaku Co., Ltd., priority 1978, dated 1981).

For one series, the system named is Pr. mirabilis. In words: MIC, dilution method on plate culture (heart infusion agar). Format: cell-based. To be noted: Proteus mirabilis, 10^6/ml bacteria, 37° C., 18 hours, read-out: Minimum Inhibitory Concentration (MIC). As for the experimental part: (§1) Thus, these compounds are very useful anti-bacterial agents. The anti-bacterial activity (in vitro) and the acute toxicity (LD50) of the compounds of this invention are shown in the following Table in comparison with known oxolinic acid.
(§2) *Determined by the standard method of Japan Society of Chemotherapy:
(§3) dilution method on plate culture (heart infusion agar culture), 10^6
(§4) /ml of bacteria were seeded and incubated at 37° C. for 18 hours.

The subject of a further series is Ent. cloacae 12001. Described as above. The format is cell-based. The note with it: Enterobacter cloacae, 10^6/ml bacteria, 37° C., 18 hours, read-out: Minimum Inhibitory Concentration (MIC). The method, then: as §1, §2, §3, §4
The next series deals with Ps. aeruginosa 2063. The series is described as above. Format: cell-based. To be noted: Pseudomonas aeruginosa, 10^6/ml bacteria, 37° C., 18 hours, read-out: Minimum Inhibitory Concentration (MIC). As for the experimental part: as §1, §2, §3, §4
The subject of a further series is S. aureus. Described as above. The format is cell-based. To be noted: Staphylococcus aureus, 10^6/ml bacteria, 37° C., 18 hours, read-out: Minimum Inhibitory Concentration (MIC). As for the experimental part: as §1, §2, §3, §4
For another series, the system named is E. coli NIHJ. The series is described as above. The format is cell-based. The note with it: Escherichia coli, 10^6/ml bacteria, 37° C., 18 hours, read-out: Minimum Inhibitory Concentration (MIC). As for the experimental part:
as §1, §2, §3, §4

The test system of a further series is Pr. vulgaris. The description is as above. To be noted: Proteus vulgaris, 10^6/ml bacteria, 37° C., 18 hours, read-out: Minimum Inhibitory Concentration (MIC). Format: cell-based. The method, then:
as §1, §2, §3, §4

The next series relates to K. pneumoniae, Type 1. The description is as above. The format is cell-based. The note with it: Klebsiella pneumoniae, TYPE1, 10^6/ml bacteria, 37° C., 18 hours, read-out: Minimum Inhibitory Concentration (MIC). As for the experimental part:
as §1, §2, §3, §4

The next series has as its system Ser. marcescens 13014. Described as above. Format: cell-based. To be noted: Serratia marcescens, 10^6/ml bacteria, 37° C., 18 hours, read-out: Minimum Inhibitory Concentration (MIC). As for the experimental part: as §1, §2, §3, §4
The next series in a line: acute toxicity (LD50). The note with it: mouse, in vivo, iv; mice i.v.
Source text: as §1

≈ marks a conversion by molar mass, not a printed value. A value given as a limit tells only on which side of the number the result lay.

Usually LD50 stands for the dose expected to kill half of the subjects tested. High values mean a less toxic substance, low ones a more toxic substance. Turning to `CCn1cc(C(=O)O)c(=O)c2cc3occc3nc21` [Compound Ia, 5,8-dihydro-5-ethyl-8-oxofuro[3,2-b]-1,8-naphthyridine-7-carboxylic acid], the MIC was not above 0.2 µg/mL with Pr. mirabilis; 0.4 µg/mL (≈ 1.55 µM) in the series on Ent. cloacae 12001; 3.1 µg/mL (≈ 12 µM) in the series with Ps. aeruginosa 2063; 3.1 µg/mL (≈ 12 µM) with S. aureus; not above 0.2 µg/mL with E. coli NIHJ; not above 0.2 µg/mL in the series on Pr. vulgaris. For the same molecule, the MIC in the series on K. pneumoniae, Type 1 worked out at 1.6 µg/mL (≈ 6.2 µM); in the series with Ser. marcescens 13014 it was 0.4 µg/mL (≈ 1.55 µM). Besides, the LD50 in the series “acute toxicity (LD50)” amounted to 221 mg/kg.
As for `CCn1cc(C(=O)O)c(=O)c2cc3c(cc21)OCO3` [Oxolinic Acid, 5-ethyl-5,8-dihydro-8-oxo-1,3-dioxolo[4,5-g]quinoline-7-carboxylic acid, reference compound], the MIC in the series with Ent. cloacae 12001 was 0.8 µg/mL (≈ 3.06 µM); with Ps. aeruginosa 2063, 25 µg/mL (≈ 95.7 µM); in the series on S. aureus, 3.1 µg/mL (≈ 11.9 µM); in the series with E. coli NIHJ, not above 0.2 µg/mL; in the series on K. pneumoniae, Type 1, 3.1 µg/mL (≈ 11.9 µM); with Ser. marcescens 13014, 0.8 µg/mL (≈ 3.06 µM).
Regarding `CCn1cc(C(=O)O)c(=O)c2cc3c(nc21)CCO3` [Compound Ib, 5-ethyl-8-oxo-2,3,5,8-tetrahydrofuro[3,2-b]-1,8-naphthyridine-7-carboxylicacid], the MIC in the series on Pr. mirabilis was not above 0.2 µg/mL; in the series on Ent. cloacae 12001 it was not above 0.2 µg/mL; with Ps. aeruginosa 2063 it was 6.3 µg/mL (≈ 24.2 µM); in the series with S. aureus, 3.1 µg/mL (≈ 11.9 µM); in the series on E. coli NIHJ, not above 0.2 µg/mL; in the series on Pr. vulgaris it was not above 0.2 µg/mL. Further, the MIC with K. pneumoniae, Type 1 was 0.8 µg/mL (≈ 3.07 µM); in the series on Ser. marcescens 13014, not above 0.2 µg/mL. In addition, the median lethal dose (LD50) in “acute toxicity (LD50)” was 376 mg/kg.
